Results from patent US20160303095A1, “METHODS OF TREATING HEPATITIS B VIRUS” (Gilead Sciences, Inc., priority 2015, published 2016).
Where two headings read alike, the source gives them in different places.

Legend:
HBV [1] = assay: PHH screening protocol: HBsAg and HBeAg levels by MSD ELISA; assay type: cell-based, Hepatitis B Virus; conditions: Hepatitis B virus
Procedure: HBV antiviral activity was assessed in primary human hepatocytes (PHH) in a 96-well format. PHH were (Life Technologies, Chicago, 11) plated on collagen coated tissue culture plates using Plating Media containing William's Medium E supplemented with 1% Penicillin/Streptomycin, 4 μg/mL human recombinant insulin, 2 mM glutamax, 15 mM Hepes, 1 μM dexamethasone and 5% fetal bovine serum (Life Technologies, Cat#A12176-01 Life Technologies, Chicago, Ill.). After a 4-hour incubation at 37° C., cells were switched to Maintenance Media (Cat#CM4000-A15564 Life Technologies, Chicago, Ill.) containing William's Medium E supplemented with 0.5% Penicillin/Streptomycin, 6.25 μg/mL human recombinant insulin, 6.25 μg/mL human transferrin, 6.25 ng/mL selenous acid, 1.25 mg/mL bovine serum albumin, 5.35 μg/mL linoleic acid, 2 mM glutamax, 15 mM Hepes, 0.1 μM dexamethasone, 2% fetal bovine serum, and 2% DMSO (Cat#D2650 Sigma, St. Louis, Mo.). On the next day, cells were infected with approximately 500 genome equivalent of selected HBV clinical isolates (21P (GTA), 32P (GTA), 91P (GTA), AD38 (GTD), 65P (GTD) or 30P (GTE); ProteoGenex, Culver City, Calif.) per cell in Maintenance Media supplemented with 4% PEG 8000 (Cat#V3011 Promega, Madison, Wis.). After 24 hour incubation cells were washed three times with William's Medium E and fed with fresh Maintenance Media. Small molecule inhibitors targeting KDMs were serially diluted in Maintenance Media and added to cells at 3 days post infection (p.i.). Media with compounds was replenished every 2-3 days. Media collected on various days was used for determination of HBsAg and HBeAg levels by MSD ELISA, and HBV RNA by qPCR. All data were converted into percentages of the untreated control and non-linear regression was performed to calculate EC50 or CC50 values.

[2] = Alamar Blue cell viability assay; assay type: cell-based; conditions: human
Procedure: Alamar Blue cell viability reagent (Cat#DAL1100 Life Technologies, Chicago, Ill.) was diluted 1 to 10 in Maintenance Media and added to the cells. Cells were incubated for 4 h at 37° C. and the fluorescence signal, which is proportional to the number of live cells, was read using a fluorimeter with excitation/emission spectra set at 560/590 nm, respectively. Data were converted into percentages of the untreated control and non-linear regression was performed to calculate CC50 values.
PHH were plated in collagen coated tissue culture plates in Plating Media and after 4-hour incubation at 37° C., cells were switched to Maintenance Media. On the next day, the cells were infected with 500 genome equivalents per cell of Genotype-A clinical isolate 21P (ProteoGenex, Culver City, Calif.) in 100 μl Maintenance Media supplemented with 4% PEG 8000 (Cat#V3011 Promega, Madison, Wis.). After an overnight incubation the inoculum was removed and the cells were washed three times with William's Media E and maintained in Maintenance Media. […] Following the transfection, the cells were incubated at 37° C. in a humidified incubator and media was changed every 3-4 days. The assay was terminated on day 14 post infection and cell viability was assessed by Alamar Blue. The collected medium was used for determination of HBsAg and HBeAg levels by MSD ELISA while cells were processed for determination of HBV RNA using qPCR.

HBV [3] = assay: Determination of HBV viral RNA by RT-qPCR in PHH; assay type: cell-based; conditions: Hepatitis B virus, read-out: HBV RNA EC50
Procedure: Following the Alamar Blue measurement, media was removed and total RNA from the cells was isolated using the RNeasy 96 Kit (Cat#74182 Qiagen, Venlo, Netherlands). […] GAPDH mRNA levels were also measured by RT-qPCR to control for differences in cell number, toxicity, and RNA purification efficiency (Cat#4390849 Life Technologies, Chicago Ill.). HBV mRNA Ct values were normalized using their cognate GAPDH mRNA Ct values by the delta-delta-Ct calculation and then expressed as a percentage of the non-targeting scrambled control.

KDM4E = molecular target: T1, KDM4E (Homo sapiens, UniProt B2RXH2); assay: Biochemical KDM inhibition assay (LANCE), KDM4E; conditions: read-out: Biochemical IC50 KDM 4E
T1 construct: host or cells: Sf9 cells
T1 sequence (B2RXH2 1-506): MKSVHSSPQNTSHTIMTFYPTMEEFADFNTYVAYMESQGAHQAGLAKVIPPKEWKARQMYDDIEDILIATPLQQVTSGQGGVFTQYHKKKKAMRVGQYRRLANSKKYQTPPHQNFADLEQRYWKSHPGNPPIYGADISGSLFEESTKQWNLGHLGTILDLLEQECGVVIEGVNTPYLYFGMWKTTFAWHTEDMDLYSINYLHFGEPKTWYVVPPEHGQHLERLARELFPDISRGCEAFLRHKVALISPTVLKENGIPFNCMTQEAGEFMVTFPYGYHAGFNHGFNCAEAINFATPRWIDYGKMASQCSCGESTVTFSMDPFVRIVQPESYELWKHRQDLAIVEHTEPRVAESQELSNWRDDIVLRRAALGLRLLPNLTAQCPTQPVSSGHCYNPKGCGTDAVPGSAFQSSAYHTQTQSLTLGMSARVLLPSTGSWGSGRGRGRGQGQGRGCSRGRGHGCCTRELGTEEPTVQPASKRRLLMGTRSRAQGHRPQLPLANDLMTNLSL

KDM5A = KDM5A (Homo sapiens, UniProt P29375); assay: Biochemical KDM inhibition assay (LANCE), KDM5A; conditions: read-out: Biochemical IC50 KDM 5A
Procedure: (§1) Representative compounds were characterized for their inhibition of KDM5 using biotinylated histone substrates. Inhibition was measured in vitro (CEREP Poitier, Le Bois l'Evêque, France) following experimental conditions described in Table 2. Briefly, the test compound, reference compound or water (control) was mixed with about 2-20 ng of recombinant, Human enzymes expressed in Sf9 cells in a buffer containing 45 mM Hepes/Tris (pH 7), 5 μM FAS, 100 μM ascorbic acid, 10 μM 2-oxoglutarate, 0.01% Tween 20 and 0.01% BSA. Thereafter, the reaction was initiated by adding the biotin-labeled substrate, and the mixture was incubated for 10-30 min at room temperature. For basal control measurements, the enzyme was omitted from the reaction mixture. Following incubation the reaction was stopped by adding 1 mM EDTA. After 5 min, the anti-methyl histone antibody labeled with europium chelate and the Ulight streptavidine (Perkin Elmer Waltham, Mass.) were added. After 60 min more, the fluorescence transfer was measured at λex=320 nm and λem=620 and λem=665 nm using a microplate reader (Envision, Perkin Elmer) (LANCE). The enzyme activity was determined by dividing the signal measured at λem=665 nm by that measured at 620 nm (ratio).

KDM5B = molecular target: T2, KDM5B (Homo sapiens, UniProt Q9UGL1); assay: Biochemical KDM inhibition assay (LANCE), KDM5B; conditions: read-out: Biochemical IC50 KDM 5B
T2 construct: host or cells: Sf9 cells
Procedure: as §1

KDM5D = molecular target: T3, KDM5D (Homo sapiens, UniProt Q9BY66); assay: Biochemical KDM inhibition assay (LANCE), KDM5D; conditions: read-out: Biochemical IC50 KDM 5D
T3 construct: host or cells: Sf9 cells
Procedure: as §1

H3K4me3 mark = assay: Western blot detection of H3K4me3 in HBV-infected PHHs; assay type: cell-based, human; conditions: for IC50: Homo sapiens
Procedure: One million primary human hepatocytes (PHH) cells from three different donors were plated in 6 well collagen coated tissue culture plates in 2.5 ml Plating Media containing William's Medium E supplemented with 1% Penicillin/Streptomycin, 4 μg/mL human recombinant insulin, 2 mM glutamax, 15 mM Hepes, 1 μM dexamethasone and 5% fetal bovine serum (Life Technologies, Cat#A12176-01 Life Technologies, Chicago, Ill.) and incubated for 4-hours at 37° C. Following this incubation the media was changed to Maintenance Media (Cat#CM4000-A15564 Life Technologies, Chicago, Ill.) containing William's Medium E supplemented with 0.5% Penicillin/Streptomycin, 6.25 μg/mL human recombinant insulin, 6.25 μg/mL human transferrin, 6.25 ng/mL selenous acid, 1.25 mg/mL bovine serum albumin, 5.35 μg/mL linoleic acid, 2 mM glutamax, 15 mM Hepes, 0.1 μM dexamethasone, 2% fetal bovine serum, and 2% DMSO (Cat#D2650 Sigma, St. Louis, Mo.). The next day, cells were infected with approximately 500 genome equivalents of HBV clinical isolates 21P (GTA) or AD38 (GTD) per cell in Maintenance Media supplemented with 4% PEG 8000. Small molecule inhibitors targeting KDMs were serially diluted in Maintenance Media and added to cells at 3 days post infection (p.i.). Media with compounds was replenished every 2-3 days. Cells were harvested on day 14 p.i. by scraping the monolayer into ice-cold PBS supplemented with 5 mM Sodium Butyrate and concentrated by centrifugation at 1000×g for 5 minutes at 4° C. The cell pellets were washed twice by re-suspension in PBS and concentrated by centrifugation. The cells were lysed by suspension in Triton Extraction Buffer (TEB: PBS containing 0.5% Triton X 100 (v/v), 2 mM phenylmethylsulfonyl fluoride (PMSF), 0.02% (w/v) NaN3) at a cell density of 10^7 cells per ml and incubated on ice for 10 minutes with gentle stirring. Following centrifugation at 500 g for 10 minutes at 4° C., the supernatants were removed and the pellets were washed in 5×10^7 cells per ml TEB buffer and centrifuged as before. The pellets were re-suspended in 0.2N HCl at a cell density of 4×10^7 cells per ml and the histones were acid extracted overnight at 4° C. Samples were centrifuged at 500 g for 10 minutes at 4° C., the supematants were removed and protein content was determined using the Bradford assay. Histones were separated on a 4-20% gradient SDS gel (Mini protean TGX precast gels from BioRad), and blotted to a Hybond C-extra nitrocellulose membrane (Amersham Biosciences, RPN303E). H3K4me3 and total H3 were detected with a mixture of 1° antibodies (Cat#05-745R Millipore and Cat#14269S Cell Signaling) diluted 1:1000 in 5% skimmed milk powder in PBS containing 0.1% Tween. The western blot was washed 3 times in PBS containing 0.1% tween and incubated with 2° antibodies (Donkey anti-Mouse IRDye at 680LT Cat#926-68022 Licor Odyssey; Donkey anti-Rabbit IRDye at 800CW Cat#96-32213; Licor Odyssey) diluted 1:10000 in 5% skimmed milk powder in PBS containing 0.1% tween 20 for 1 h. Detection of infrared fluorescence was performed on Infrared Fluorescence Imaging System LI-COR. Concentration dependence of H3K4me3/H3 signal was used to calculate IC50 value for induction of H3K4 trimethylation.

[4] = read-out: HBeAg EC50, HBV-infected PHH
[5] = read-out: HBsAg EC50, HBV-infected PHH
[6] = primary human hepatocytes (PHH), read-out: PHH CC50

Chain of KDM5A (P29375 whole entry): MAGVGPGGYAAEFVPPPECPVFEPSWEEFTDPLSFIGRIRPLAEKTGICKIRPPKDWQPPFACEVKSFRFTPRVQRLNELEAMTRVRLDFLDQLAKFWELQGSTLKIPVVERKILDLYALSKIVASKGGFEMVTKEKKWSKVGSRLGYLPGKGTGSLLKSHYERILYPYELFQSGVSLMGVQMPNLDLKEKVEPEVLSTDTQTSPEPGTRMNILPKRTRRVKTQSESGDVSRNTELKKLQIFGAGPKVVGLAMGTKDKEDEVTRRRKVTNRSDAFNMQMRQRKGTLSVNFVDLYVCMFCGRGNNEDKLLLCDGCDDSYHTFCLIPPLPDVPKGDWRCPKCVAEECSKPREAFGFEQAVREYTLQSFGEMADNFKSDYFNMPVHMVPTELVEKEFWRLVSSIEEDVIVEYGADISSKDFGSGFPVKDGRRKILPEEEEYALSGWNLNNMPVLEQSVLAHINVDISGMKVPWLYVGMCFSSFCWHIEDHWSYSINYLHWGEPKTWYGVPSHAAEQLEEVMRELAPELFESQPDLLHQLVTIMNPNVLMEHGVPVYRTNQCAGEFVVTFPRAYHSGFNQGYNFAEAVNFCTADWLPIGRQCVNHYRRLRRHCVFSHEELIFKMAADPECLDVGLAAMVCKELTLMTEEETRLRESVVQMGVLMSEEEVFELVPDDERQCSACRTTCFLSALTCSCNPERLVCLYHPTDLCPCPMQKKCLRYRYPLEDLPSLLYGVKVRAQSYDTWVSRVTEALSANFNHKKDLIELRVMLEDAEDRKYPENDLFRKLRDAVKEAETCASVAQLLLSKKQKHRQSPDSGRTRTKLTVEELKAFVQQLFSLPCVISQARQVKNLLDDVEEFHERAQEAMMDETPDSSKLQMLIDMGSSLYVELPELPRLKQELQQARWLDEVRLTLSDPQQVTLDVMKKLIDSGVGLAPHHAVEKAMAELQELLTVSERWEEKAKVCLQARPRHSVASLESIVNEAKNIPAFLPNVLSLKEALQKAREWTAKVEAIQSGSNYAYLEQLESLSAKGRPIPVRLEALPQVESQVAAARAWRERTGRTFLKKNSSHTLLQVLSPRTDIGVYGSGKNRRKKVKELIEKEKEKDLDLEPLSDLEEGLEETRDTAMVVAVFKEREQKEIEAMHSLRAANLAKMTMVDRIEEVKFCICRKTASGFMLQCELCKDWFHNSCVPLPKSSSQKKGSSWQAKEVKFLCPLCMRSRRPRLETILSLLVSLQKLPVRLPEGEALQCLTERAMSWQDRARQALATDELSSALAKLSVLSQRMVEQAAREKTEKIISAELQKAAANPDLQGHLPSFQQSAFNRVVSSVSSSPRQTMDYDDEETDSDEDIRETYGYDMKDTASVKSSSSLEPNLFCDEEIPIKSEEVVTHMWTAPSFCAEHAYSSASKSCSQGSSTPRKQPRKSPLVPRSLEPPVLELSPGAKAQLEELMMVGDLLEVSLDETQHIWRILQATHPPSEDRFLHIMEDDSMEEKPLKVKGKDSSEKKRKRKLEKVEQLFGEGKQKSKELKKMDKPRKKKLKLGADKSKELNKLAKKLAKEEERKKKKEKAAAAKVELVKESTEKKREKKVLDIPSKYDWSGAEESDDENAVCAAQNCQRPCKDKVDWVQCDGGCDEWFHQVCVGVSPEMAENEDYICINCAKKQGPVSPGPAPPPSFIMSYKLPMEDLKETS
T2 sequence (Q9UGL1 whole entry): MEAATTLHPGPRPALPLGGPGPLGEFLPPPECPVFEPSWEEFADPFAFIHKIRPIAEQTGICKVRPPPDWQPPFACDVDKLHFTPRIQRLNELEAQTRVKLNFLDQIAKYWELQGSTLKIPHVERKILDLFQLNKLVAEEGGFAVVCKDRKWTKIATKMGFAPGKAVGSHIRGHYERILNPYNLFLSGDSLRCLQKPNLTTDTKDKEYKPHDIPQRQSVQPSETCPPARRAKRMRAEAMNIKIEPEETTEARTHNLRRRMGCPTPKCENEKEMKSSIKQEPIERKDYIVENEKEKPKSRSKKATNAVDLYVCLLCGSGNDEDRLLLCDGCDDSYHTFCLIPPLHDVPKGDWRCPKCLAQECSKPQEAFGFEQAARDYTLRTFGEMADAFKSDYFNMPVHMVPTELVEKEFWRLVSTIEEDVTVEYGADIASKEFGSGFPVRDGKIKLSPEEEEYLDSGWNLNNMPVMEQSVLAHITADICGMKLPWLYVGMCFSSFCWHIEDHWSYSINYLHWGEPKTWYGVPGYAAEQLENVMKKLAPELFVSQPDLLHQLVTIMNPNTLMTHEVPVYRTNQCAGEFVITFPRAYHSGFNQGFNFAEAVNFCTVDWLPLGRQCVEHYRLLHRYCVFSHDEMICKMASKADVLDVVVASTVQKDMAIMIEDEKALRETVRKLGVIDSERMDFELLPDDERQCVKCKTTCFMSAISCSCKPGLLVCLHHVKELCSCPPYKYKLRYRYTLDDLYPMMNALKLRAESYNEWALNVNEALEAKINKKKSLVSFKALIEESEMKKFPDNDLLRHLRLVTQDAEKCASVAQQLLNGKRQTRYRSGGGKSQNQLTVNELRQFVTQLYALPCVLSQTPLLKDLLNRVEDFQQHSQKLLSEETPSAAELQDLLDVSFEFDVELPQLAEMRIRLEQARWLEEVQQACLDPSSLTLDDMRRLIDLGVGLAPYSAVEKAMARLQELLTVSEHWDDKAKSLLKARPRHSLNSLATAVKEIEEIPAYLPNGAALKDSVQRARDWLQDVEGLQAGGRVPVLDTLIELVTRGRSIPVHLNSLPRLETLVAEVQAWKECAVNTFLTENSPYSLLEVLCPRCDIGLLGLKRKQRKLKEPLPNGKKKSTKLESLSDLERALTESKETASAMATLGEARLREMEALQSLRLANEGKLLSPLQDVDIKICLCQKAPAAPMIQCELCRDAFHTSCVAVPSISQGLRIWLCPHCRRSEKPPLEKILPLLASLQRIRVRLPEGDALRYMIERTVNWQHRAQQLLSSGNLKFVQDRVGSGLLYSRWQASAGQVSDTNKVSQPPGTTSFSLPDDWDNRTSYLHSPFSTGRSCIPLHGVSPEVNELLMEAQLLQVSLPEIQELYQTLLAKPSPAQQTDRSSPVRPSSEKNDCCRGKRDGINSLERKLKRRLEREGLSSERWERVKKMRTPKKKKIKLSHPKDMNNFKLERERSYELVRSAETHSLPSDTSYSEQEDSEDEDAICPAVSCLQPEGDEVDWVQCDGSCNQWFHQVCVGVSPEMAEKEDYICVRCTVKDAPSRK
T3 sequence (Q9BY66 whole entry): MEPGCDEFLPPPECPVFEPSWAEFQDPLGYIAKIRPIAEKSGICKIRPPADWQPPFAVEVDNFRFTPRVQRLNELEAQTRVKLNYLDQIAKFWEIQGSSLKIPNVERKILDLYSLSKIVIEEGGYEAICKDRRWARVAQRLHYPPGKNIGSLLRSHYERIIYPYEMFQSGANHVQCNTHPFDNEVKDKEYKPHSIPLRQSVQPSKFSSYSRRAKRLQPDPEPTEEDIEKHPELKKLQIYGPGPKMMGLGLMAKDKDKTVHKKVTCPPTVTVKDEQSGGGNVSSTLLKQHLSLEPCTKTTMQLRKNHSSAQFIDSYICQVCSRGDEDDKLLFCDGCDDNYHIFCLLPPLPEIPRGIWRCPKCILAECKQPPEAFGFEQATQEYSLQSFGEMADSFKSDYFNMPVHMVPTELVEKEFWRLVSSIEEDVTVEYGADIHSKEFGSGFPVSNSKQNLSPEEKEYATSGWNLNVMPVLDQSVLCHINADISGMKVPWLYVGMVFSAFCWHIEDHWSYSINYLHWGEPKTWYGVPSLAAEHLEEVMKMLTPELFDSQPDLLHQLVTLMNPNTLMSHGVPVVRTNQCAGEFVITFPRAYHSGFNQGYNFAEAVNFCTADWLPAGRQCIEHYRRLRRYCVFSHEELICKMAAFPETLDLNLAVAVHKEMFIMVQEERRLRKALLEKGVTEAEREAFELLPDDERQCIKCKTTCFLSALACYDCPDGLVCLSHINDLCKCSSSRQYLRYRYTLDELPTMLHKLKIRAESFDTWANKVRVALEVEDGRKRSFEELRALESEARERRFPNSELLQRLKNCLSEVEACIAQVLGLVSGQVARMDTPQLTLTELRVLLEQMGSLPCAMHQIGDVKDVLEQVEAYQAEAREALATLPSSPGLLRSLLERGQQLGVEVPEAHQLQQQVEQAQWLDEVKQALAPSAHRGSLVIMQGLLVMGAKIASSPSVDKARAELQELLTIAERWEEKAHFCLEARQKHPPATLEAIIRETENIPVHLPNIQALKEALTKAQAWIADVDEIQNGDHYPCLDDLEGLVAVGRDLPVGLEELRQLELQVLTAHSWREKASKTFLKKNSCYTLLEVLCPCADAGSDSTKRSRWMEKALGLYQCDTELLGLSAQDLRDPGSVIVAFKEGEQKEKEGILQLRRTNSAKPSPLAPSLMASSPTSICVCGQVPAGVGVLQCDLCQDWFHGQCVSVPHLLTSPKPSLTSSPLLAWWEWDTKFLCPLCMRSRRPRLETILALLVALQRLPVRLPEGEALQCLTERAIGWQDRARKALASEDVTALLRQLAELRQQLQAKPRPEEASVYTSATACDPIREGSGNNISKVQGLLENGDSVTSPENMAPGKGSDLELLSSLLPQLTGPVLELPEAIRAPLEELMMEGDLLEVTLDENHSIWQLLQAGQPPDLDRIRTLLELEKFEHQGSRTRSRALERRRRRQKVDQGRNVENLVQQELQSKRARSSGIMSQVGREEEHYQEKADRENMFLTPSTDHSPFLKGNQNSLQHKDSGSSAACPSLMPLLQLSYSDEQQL

SMILES | EC50 (HBV [1]; [4]) [µM] | EC50 (HBV [1]; [5]) [µM] | CC50 [2, 6] [µM] | CC50 [2] [µM] | other results
O=C(O)CCNc1cc(N2CCc3ccccc3CC2)nc(-c2ccccn2)n1 [Example 1, GSK-J1, reference compound] | 8.04 | 22.4 | ≥ 100 | – | –
O=C(O)c1ccc(O)c2ncccc12 [Example 2, 8-HQ-5-COOH, reference compound] | 32 | 45.8 | – | – | –
CCOC(=O)CCNc1cc(N2CCc3ccccc3CC2)nc(-c2ccccn2)n1 [Example 3, GSK-J4, reference compound] | 3.43 | 28.7 | ≥ 100 | – | –
Clc1ccc(N/N=C(\c2ccccc2)c2ccccn2)nc1 [Example 4, JIB-04, reference compound] | 0.9 | 0.9 | – | ≥ 100 | EC50 (HBV [3]; HBV-infected PHH): 4.6 µM
CN(C)CCCNC(=O)c1ccc(-c2cc(O)c3ncccc3c2)cc1 [Example 5, ML-324, reference compound] | 34.5 | 38.4 | 69.4 | – | –
N[C@H]1C[C@@H]1c1ccc(-c2cccc(O)c2)cc1 [Example 6, OG-L002, reference compound] | 46.7 | 38.3 | – | ≥ 100 | EC50 (HBV [3]): 31.6 µM
NC1CC1c1cccc(OCC[C@H](NC(=O)c2ccccc2)C(=O)NCc2ccccc2)c1 (some centres unmarked) [Example 10, NCL-1, reference compound] | 19 | 19.4 | – | 8.12 | –
O=C(O)c1ccnc(-n2ncc(CCO)c2OCc2ccc(F)cc2)c1 [Example 12] | 50 | 50 | – | ≥ 50 | IC50 (KDM4E): 9.1 µM; IC50 (KDM5A): 1.6 µM; IC50 (KDM5B): 2.7 µM; IC50 (KDM5D): 6.4 µM
CCN(CCN(C)C)C(=O)CNCc1cc(C=O)ccn1 [Example 15] | 0.053 | 0.041 | – | ≥ 50 | IC50 (H3K4me3 mark; read-out: IC50 (concentration causing a 50% increase in the H3K4me3 mark), Virus 21P (GTA), PHH 8130): 0.05 µM; IC50 (H3K4me3 mark; read-out: IC50 (concentration causing a 50% increase in the H3K4me3 mark), Virus 21P (GTA), PHH 8181): 0.03 µM; IC50 (H3K4me3 mark; read-out: IC50 (concentration causing a 50% increase in the H3K4me3 mark), Virus AD38 (GTD), PHH 4239): 0.02 µM; IC50 (H3K4me3 mark; read-out: IC50 (concentration causing a 50% increase in the H3K4me3 mark), Virus AD38 (GTD), PHH 8130): 0.05 µM; IC50 (H3K4me3 mark; read-out: IC50 (concentration causing a 50% increase in the H3K4me3 mark), Virus AD38 (GTD), PHH 8181): 0.04 µM; chromatin H3K4Me3 mark (H3K4me3 mark; PHH from three different donors): increase in the chromatin H3K4Me3 mark in a dose-dependent manner
CCN(CCN(C)C)C(=O)CNCc1cc(/C=N/CCO)ccn1 [Example 16] | 0.648 | 0.257 | – | ≥ 50 | –
